Laboratory results from patent publication US20100248321A1, “SURFACTANT AMENDMENTS FOR THE STIMULATION OF BIOGENIC GAS GENERATION IN DEPOSITS OF CARBONACEOUS MATERIALS” (LUCA Technologies, Inc., priority 2009, published 2010).

Tests used:
[1] = tested on: coal samples from the Powder River Basin in Wyoming; experiment: biogenic methane generation from coal samples after surfactant amendment; parameters: species or system microbial consortia present in coal and associated waters; details: after more than 100 days; headspace methane by gas chromatograph; surfactants tested at 0.05 to 0.5 g/L; 2.5 gram coal, 15 mL formation water
Protocol: (§1) Experiments were conducted to compare biogenic methane generation from coal samples after introducing an amendment of a surfactant. For each experiment, methane generation from coal samples from the Powder River Basin in Wyoming and shale samples from the Antrim Shale in Michigan was periodically measured over the course of more than 100 days. Each 2.5 gram coal sample or 5 g shale sample was placed in a 30 ml serum bottle with 15 mL of water that was also taken from the formation. The coal or shale and formation water were placed in the serum bottle while working in an anaerobic glove bag. The headspace in the bottle above the sample was flushed with a mixture of N2 and CO2 (95/5).
(§2) Amendments were then added to the samples. Surfactants were tested at concentrations of 0.05 to 0.5 g/L. Surfactants were tested alone and in combination with other amendments, including proteins (e.g., yeast extract), phosphate and acetate. The samples were then sealed, removed from the glove bag, and stored at a temperature close to the in situ temperature for the coal or shale samples over the course of the experiments.
(§3) The methane levels in the headspace above the samples was periodically measured and recorded. The methane was measured by running samples of the headspace gases through a gas chromatograph equipped with a thermal conductivity detector.

[2] = tested on: shale samples from the Antrim Shale in Michigan; experiment: biogenic methane generation from shale samples after surfactant amendment; parameters: species or system microbial consortia present in shale and associated waters; details: after more than 100 days; headspace methane by gas chromatograph; surfactants tested at 0.05 to 0.5 g/L; 5 g shale, 15 mL formation water
Protocol: as §1, §2, §3

CCCCOCCO [2-butoxyethanol]
methane production in coal containing bottles [1]: highest levels of methane production
methane production in shale containing bottles [2]: highest levels of methane production

CCCCCCCC/C=C\CCCCCCCC(=O)N(C)CCS(=O)(=O)[O-].[Na+] [Geropon T-77]
methane production in coal containing bottles [1]: highest levels of methane production

Benzalkonium chloride
methane production in coal containing bottles [1]: highest levels of methane production
